Values of other authors as cited in patent publication US20250339386A1, “VITAMIN K2 FOR USE IN TREATMENT OF CORONARY ARTERY CALCIFICATION” (Region Syddanmark, priority 2022, published 2025).

Tests used:
[1] = test system: human monocyte-derived macrophages; settings: cells pretreated; dose response relationship
CAC progression = settings: asymptomatic older men and women 60-80 years, with recommended calcium and vitamin D
[2] = test system: aortic valve calcification; settings: high-dose supplementation; male subjects with aortic valve calcification score above 300 arbitrary units

CC(C)=CCC/C(C)=C/CC/C(C)=C/CC/C(C)=C/CC/C(C)=C/CC/C(C)=C/CC/C(C)=C/CC1=C(C)C(=O)c2ccccc2C1=O [menaquinone-7]
Cytokine release (TNF-α, IL-1α, IL-1β) [1]: inhibition of cytokine release

CC1=C(C/C=C(\C)CCC[C@H](C)CCC[C@H](C)CCCC(C)C)C(=O)c2ccccc2C1=O [vitamin K1, phylloquinone]
Progression of existing CAC (CAC progression): reduced the progression of existing CAC

Menaquinone [vitamin K2]
Aortic valve calcification progression [2]: non-significantly decreased
